Tests used:
Experiment in all cases: relative viability (nuclei count vs DMSO), 5 days (fraction); higher = more cells survive
[1] = compound: C1=CC=C(C(=C1)C2=CC=C(C=C2)C3=CSC4=C3C(=C(C(=O)N4)C#N)O)O + Nc1ncn([C@H]2C[C@H](O)[C@@H](CO)O2)c(=O)n1 [Decitabine] (partner 2 µM)
Outline: (§1)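 A single step with final 0.05% Triton X-100, 1% formaldehyde and 1 ug/ml Hoechst fixed the cells and stained nuclei 5 days after treatment. Lung cancer cell lines in 1536-well plates had been treated by pin tool the day after seeding with one drug alone or a fixed anchor-drug dose plus five library-drug doses (not always all listed) in √10 steps, and nuclei were counted on 4× images. Relative viability is the ratio of nuclei in treated wells to nuclei in vehicle wells, taken as the median of duplicate plates.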

[2] = compound: O=C(CCCCCCNC(=O)c1cnc(N(c2ccccc2)c2ccccc2)nc1)NO [Ricolinostat] + CC(=O)Nc1cccc(-n2c(=O)n(C3CC3)c(=O)c3c(Nc4ccc(I)cc4F)n(C)c(=O)c(C)c32)c1 [Trametinib] (partner 0.02 µM)
Outline: as §1

[3] = compound: O=C(CCCCCCNC(=O)c1cnc(N(c2ccccc2)c2ccccc2)nc1)NO [Ricolinostat] + CC(C)C[C@H](NC(=O)[C@H](Cc1ccccc1)NC(=O)c1cnccn1)B(O)O [Bortezomib] (partner 0.002 µM)
Outline: as §1

[4] = compound: CC1=CN2C(=O)C=C(N=C2C(=C1)C(C)NC3=CC=CC=C3)N4CCOCC4 [TGX 221] + Cc1nc(Nc2ncc(C(=O)Nc3c(C)cccc3Cl)s2)cc(N2CCN(CCO)CC2)n1 [Dasatinib] (partner 0.075 µM)
Outline: as §1

RERF-LC-KJ
relative viability ([1]; first compound 0.08 µM): 0.762
relative viability ([1]; first compound 0.253 µM): 0.756
relative viability ([1]; first compound 0.8 µM): 0.609
relative viability ([1]; first compound 2.53 µM): 0.819
relative viability ([1]; first compound 8 µM): 0.681
relative viability ([2]; first compound 0.08 µM): 0.869
relative viability ([2]; first compound 0.253 µM): 0.836
relative viability ([2]; first compound 0.8 µM): 0.805
relative viability ([2]; first compound 2.53 µM): 0.715
relative viability ([3]; first compound 0.08 µM): 1.15
relative viability ([3]; first compound 0.253 µM): 1
relative viability ([3]; first compound 0.8 µM): 1.11
relative viability ([3]; first compound 2.53 µM): 1.02
relative viability ([4]; first compound 0.08 µM): 0.692
relative viability ([4]; first compound 0.253 µM): 0.795
relative viability ([4]; first compound 0.8 µM): 0.811
relative viability ([4]; first compound 2.53 µM): 0.764
relative viability ([4]; first compound 8 µM): 0.744

SK-LU-1
relative viability ([1]; first compound 0.08 µM): 0.506
relative viability ([1]; first compound 0.253 µM): 0.572
relative viability ([1]; first compound 0.8 µM): 0.593
relative viability ([1]; first compound 2.53 µM): 0.575
relative viability ([1]; first compound 8 µM): 0.497
relative viability ([2]; first compound 0.08 µM): 0.476
relative viability ([2]; first compound 0.253 µM): 0.52
relative viability ([2]; first compound 0.8 µM): 0.475
relative viability ([2]; first compound 2.53 µM): 0.396
relative viability ([3]; first compound 0.08 µM): 0.895
relative viability ([3]; first compound 0.253 µM): 1.04
relative viability ([3]; first compound 0.8 µM): 0.916
relative viability ([3]; first compound 2.53 µM): 0.46
relative viability ([4]; first compound 0.08 µM): 0.203
relative viability ([4]; first compound 0.253 µM): 0.181
relative viability ([4]; first compound 0.8 µM): 0.165
relative viability ([4]; first compound 2.53 µM): 0.129
relative viability ([4]; first compound 8 µM): 0.128

SW 1573
relative viability ([1]; first compound 0.08 µM): 0.447
relative viability ([1]; first compound 0.253 µM): 0.536
relative viability ([1]; first compound 0.8 µM): 0.552
relative viability ([1]; first compound 2.53 µM): 0.468
relative viability ([1]; first compound 8 µM): 0.425
relative viability ([2]; first compound 0.08 µM): 0.468
relative viability ([2]; first compound 0.253 µM): 0.55
relative viability ([2]; first compound 0.8 µM): 0.593
relative viability ([2]; first compound 2.53 µM): 0.596
relative viability ([3]; first compound 0.08 µM): 0.834
relative viability ([3]; first compound 0.253 µM): 1.13
relative viability ([3]; first compound 0.8 µM): 1.06
relative viability ([3]; first compound 2.53 µM): 1.13
relative viability ([4]; first compound 0.08 µM): 0.402
relative viability ([4]; first compound 0.253 µM): 0.501
relative viability ([4]; first compound 0.8 µM): 0.403
relative viability ([4]; first compound 2.53 µM): 0.406
relative viability ([4]; first compound 8 µM): 0.574

UMC-11
relative viability ([1]; first compound 0.08 µM): 0.668
relative viability ([1]; first compound 0.253 µM): 1.02
relative viability ([1]; first compound 0.8 µM): 0.495
relative viability ([1]; first compound 2.53 µM): 0.477
relative viability ([1]; first compound 8 µM): 0.57
relative viability ([2]; first compound 0.08 µM): 0.644
relative viability ([2]; first compound 0.253 µM): 0.684
relative viability ([2]; first compound 0.8 µM): 0.623
relative viability ([2]; first compound 2.53 µM): 0.265
relative viability ([3]; first compound 0.08 µM): 0.571
relative viability ([3]; first compound 0.253 µM): 0.795
relative viability ([3]; first compound 0.8 µM): 0.678
relative viability ([3]; first compound 2.53 µM): 0.372
relative viability ([4]; first compound 0.08 µM): 0.481
relative viability ([4]; first compound 0.253 µM): 0.437
relative viability ([4]; first compound 0.8 µM): 0.436
relative viability ([4]; first compound 2.53 µM): 0.535
relative viability ([4]; first compound 8 µM): 0.492

— the supplement of paper PMC10307832
